Experimental findings from ChEMBL document CHEMBL1201862, “PubChem BioAssay data set” (2004) are described below.

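Briefly, cells in 96-well plates were exposed to five compound concentrations for 48 h, and endpoints were estimated by linear interpolation. Abbreviation: GI50, concentration required for 50% inhibition of growth.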 Active and inactive are the calls of the source. Cut-off read from the data, not from the text of the source: active = GI50 up to about 1.1 µM and inactive = higher.

Test systems include HL-60; HCT-116; LOX IMVI; RPMI-8226; RXF 393; IGROV-1; KM12; MDA-N; UO-31; 786-0; TK-10; NCI-H460; SN12C; SF-295; UACC-257; HCC 2998; OVCAR-4; U-251; HOP-62; Malme-3M.
Common to all, as to test: NCI anticancer screen, dose series, 48 h

Turning to `Nc1ccc2c(c1)N(C(=O)c1cc3cc(NC(=O)c4cc5ccccc5o4)ccc3[nH]1)CC2CCl` (stereo not given), the GI50 was 0.0416 µM (active) in the test with HL-60; 0.0533 µM (active) in the test on HCT-116; 0.0398 µM (active) in the test with LOX IMVI; 0.0284 µM (active) in the test on RPMI-8226; 0.018 µM (active) with RXF 393; 0.108 µM (active) in the test on IGROV-1. Also, the GI50 was 0.115 µM (active) with KM12; 0.183 µM (active) in the test on MDA-N; 0.0296 µM (active) with UO-31; 0.0638 µM (active) in the test with 786-0; 0.283 µM (active) in the test with TK-10; 0.0205 µM (active) in the test with NCI-H460. For the same compound, the GI50 in the test on SN12C is 0.215 µM (active); in the test on SF-295, 0.0434 µM (active); with UACC-257, 0.113 µM (active); in the test with HCC 2998, 0.0724 µM (active); in the test on OVCAR-4, 0.0605 µM (active); with U-251, 0.106 µM (active). Moreover, the GI50 was 0.138 µM (active) in the test with HOP-62 and 0.122 µM (active) with Malme-3M.
As to `CCOC(=O)CC[C@H](N)C(=O)N[C@@H](Cc1ccc(N(CCCl)CCCl)cc1)C(=O)OCC`, the GI50 in the test with HL-60 is 0.0705 µM (active); with HCT-116, 0.851 µM (active); in the test with LOX IMVI it was 0.184 µM (active); in the test with RPMI-8226, 2.54 µM (inactive); with RXF 393, 0.658 µM (active); in the test on IGROV-1 it was 1.56 µM (inactive). Moreover, the GI50 in the test with KM12 is 4.61 µM (inactive); in the test on MDA-N, 0.944 µM (active); in the test on UO-31, 0.807 µM (active); in the test with 786-0 it was 0.685 µM (active); in the test with TK-10, 1.47 µM (inactive); with NCI-H460, 0.0364 µM (active). The GI50 is 2.15 µM (inactive) in the test on SN12C; 3.6 µM (inactive) with SF-295; 1.5 µM (inactive) in the test on UACC-257; 1.25 µM (inactive) in the test on HCC 2998; 0.565 µM (active) with OVCAR-4; 1.94 µM (inactive) with U-251. The GI50 is 2.37 µM (inactive) with HOP-62 and 0.291 µM (active) in the test on Malme-3M.
On to `Nc1ccc(Oc2ccc(C34CC5CC6C3CC3CC4C(C5)C6(c4ccc(Oc5ccc(N)c(O)c5)cc4)C3)cc2)cc1O`, for which the GI50 in the test with HL-60 was 0.542 µM (active); in the test with HCT-116, 1.31 µM (inactive); with LOX IMVI it was 2.87 µM (inactive); in the test on RPMI-8226, 1.93 µM (inactive); in the test with RXF 393 it was 4.13 µM (inactive); in the test on IGROV-1 it was 5.14 µM (inactive). Moreover, the GI50 is 3.69 µM (inactive) in the test with KM12; 3.22 µM (inactive) in the test with MDA-N; 2.42 µM (inactive) in the test with UO-31; 3.15 µM (inactive) in the test with 786-0; 4.92 µM (inactive) with TK-10; 3.56 µM (inactive) in the test on NCI-H460. Besides, the GI50 with SN12C is 1.72 µM (inactive); in the test with SF-295 it was 3.58 µM (inactive); in the test with UACC-257 it was 3.64 µM (inactive); with HCC 2998, 1.87 µM (inactive); in the test with OVCAR-4, 4.27 µM (inactive); with U-251, 2.58 µM (inactive). Moreover, the GI50 in the test with HOP-62 is 4.78 µM (inactive); in the test on Malme-3M it was 13.8 µM (inactive).
`COc1ccc(-n2c3c(c4c(CN(C)C)c(O)ccc42)C(=O)c2ccccc2C3=O)cc1`: the GI50 was 3.13 µM (inactive) with HL-60; 1.68 µM (inactive) in the test on HCT-116; 2.49 µM (inactive) in the test on LOX IMVI; 2.17 µM (inactive) in the test on RPMI-8226; 4.63 µM (inactive) in the test on RXF 393; 3.99 µM (inactive) with IGROV-1. Besides, the GI50 with KM12 was 3.2 µM (inactive); with MDA-N, 4.62 µM (inactive); in the test on UO-31 it was 1.96 µM (inactive); in the test with 786-0 it was 1.89 µM (inactive); in the test with TK-10, 17.6 µM (inactive); in the test with NCI-H460 it was 4.24 µM (inactive). For the same compound, the GI50 is 2.82 µM (inactive) in the test with SN12C; 14.7 µM (inactive) with SF-295; 18.8 µM (inactive) with UACC-257; 2.77 µM (inactive) in the test with HCC 2998; 2.37 µM (inactive) in the test with OVCAR-4; 2.94 µM (inactive) in the test on U-251. The GI50 was 2.02 µM (inactive) with HOP-62 and 11.4 µM (inactive) in the test on Malme-3M.
For the compound `CN(CCc1ccc(N)cc1)[C@H]1CCCC[C@H]1N1CCCC1`, the GI50 was > 100 µM (inactive) in the test on HL-60; > 100 µM (inactive) in the test with HCT-116; > 100 µM (inactive) in the test with LOX IMVI; 66.7 µM (inactive) in the test on RPMI-8226; > 100 µM (inactive) with RXF 393; > 100 µM (inactive) in the test with IGROV-1. Moreover, the GI50 in the test on KM12, in the test with MDA-N, in the test with UO-31, in the test on 786-0, with TK-10 and in the test on NCI-H460 was > 100 µM (inactive) in each case. In addition, the GI50 with SN12C was > 100 µM (inactive); with SF-295, > 100 µM (inactive); in the test on UACC-257 it was > 100 µM (inactive); in the test with HCC 2998, 51.9 µM (inactive); with OVCAR-4, > 100 µM (inactive); in the test on U-251 it was > 100 µM (inactive). Moreover, the GI50 in the test on HOP-62 and in the test with Malme-3M was > 100 µM (inactive) throughout.
On to `c1ccc2c(c1)Nc1ccccc1[P+]21c2ccccc2Nc2ccccc21`, for which the GI50 is 0.251 µM (active) in the test with HL-60; 0.151 µM (active) in the test on HCT-116; 0.587 µM (active) with LOX IMVI; 0.0314 µM (active) in the test on RPMI-8226; 0.303 µM (active) in the test with RXF 393; 0.27 µM (active) with IGROV-1. Further, the GI50 is 0.0845 µM (active) in the test on KM12; 0.27 µM (active) with MDA-N; 5.46 µM (inactive) with UO-31; 0.401 µM (active) with 786-0; 0.581 µM (active) in the test on TK-10; 0.146 µM (active) with NCI-H460. The GI50 in the test on SN12C was 0.13 µM (active); in the test on SF-295, 1.3 µM (inactive); in the test on UACC-257, 0.214 µM (active); with HCC 2998, 0.313 µM (active); with OVCAR-4, 0.447 µM (active); with U-251 it was 0.23 µM (active). Besides, the values for the GI50 in the test on HOP-62 and in the test with Malme-3M were 0.313 µM (active) and 0.207 µM (active), respectively.
Consider `CC(NNC(=O)c1ccncc1)c1cccc(C(F)(F)F)c1` (stereo not given), for which the GI50 with HL-60, in the test with HCT-116, with LOX IMVI, in the test with RPMI-8226, in the test on RXF 393 and in the test with IGROV-1 was > 100 µM (inactive) each time. Besides, the GI50 with KM12, in the test on MDA-N, with UO-31, in the test on 786-0, in the test with TK-10 and in the test on NCI-H460 was > 100 µM (inactive) each time. Besides, the GI50 in the test on SN12C, with SF-295, with UACC-257, with HCC 2998, in the test on OVCAR-4 and with U-251 was > 100 µM (inactive) each time. Also, the GI50 in the test on HOP-62 and in the test with Malme-3M was > 100 µM (inactive) each time.
`COc1cc([C@@H]2c3cc4c(cc3[C@@H](OC3OC5CO[C@@H](c6cccs6)OC5C(O)C3O)[C@H]3COC(=O)[C@H]23)OCO4)cc(OC)c1O` (stereo not given in full): the GI50 in the test with HL-60 is 0.0521 µM (active); in the test with HCT-116, 0.885 µM (active); with LOX IMVI it was 0.206 µM (active); in the test on RPMI-8226 it was 0.164 µM (active); in the test on RXF 393 it was 0.478 µM (active); in the test on IGROV-1, 1.7 µM (inactive). Further, the GI50 is 0.753 µM (active) in the test on KM12; 1.03 µM (active) in the test on MDA-N; 4.35 µM (inactive) in the test with UO-31; 0.285 µM (active) in the test on 786-0; 1.75 µM (inactive) with TK-10; 0.0171 µM (active) in the test with NCI-H460. The GI50 with SN12C was 0.313 µM (active); in the test on SF-295 it was 0.144 µM (active); with UACC-257 it was 1.86 µM (inactive); in the test with HCC 2998, 0.671 µM (active); with OVCAR-4, 5.12 µM (inactive); with U-251, 0.147 µM (active). Further, the results for the GI50 in the test on HOP-62 and with Malme-3M were 0.135 µM (active) and 0.656 µM (active), respectively.
As for `COC(=O)C(=O)C(C(=O)OC)C(=O)C(=O)Nc1ccccc1C(N)=O` (stereo not given), the GI50 with HL-60, in the test on HCT-116, with LOX IMVI, with RPMI-8226, in the test on RXF 393 and in the test with IGROV-1 was > 100 µM (inactive) throughout. In addition, the GI50 in the test on KM12 was > 100 µM (inactive); with MDA-N it was > 100 µM (inactive); in the test on UO-31 it was > 100 µM (inactive); with 786-0, > 100 µM (inactive); with TK-10, > 100 µM (inactive); in the test on NCI-H460, > 10 µM (inactive). The GI50 in the test with SN12C is > 100 µM (inactive); in the test on SF-295, > 100 µM (inactive); in the test on UACC-257 it was > 100 µM (inactive); with HCC 2998 it was > 100 µM (inactive); in the test on OVCAR-4 it was 66.5 µM (inactive); with U-251, > 100 µM (inactive). Besides, the GI50 in the test on HOP-62 and in the test on Malme-3M was > 100 µM (inactive) each time.
For the compound `O=C(Nc1ccccn1)c1cc2c(cc1Cl)Sc1nccn1S2(=O)=O`, the GI50 in the test on HL-60 was 23.9 µM (inactive); with HCT-116 it was 28.4 µM (inactive); in the test with LOX IMVI it was 26.8 µM (inactive); with RPMI-8226, 29.7 µM (inactive); with RXF 393, 25.5 µM (inactive); in the test on IGROV-1, 23.8 µM (inactive). For the same compound, the GI50 with KM12 was 33.6 µM (inactive); in the test on MDA-N, 36.3 µM (inactive); in the test with UO-31, 27 µM (inactive); with 786-0, 35.1 µM (inactive); in the test with TK-10 it was 33.4 µM (inactive); with NCI-H460, 30.1 µM (inactive). Further, the GI50 in the test with SN12C is 36.6 µM (inactive); with SF-295 it was 36.6 µM (inactive); in the test with UACC-257, 33.7 µM (inactive); with HCC 2998, 16.1 µM (inactive); in the test with OVCAR-4 it was 33 µM (inactive); with U-251, 44.4 µM (inactive). In addition, the GI50 is 39.6 µM (inactive) in the test on HOP-62 and 63 µM (inactive) in the test with Malme-3M.
